# Patent US20230390277A1, “METHODS TO SENSITIZE TUMORS TO TREATMENT BY IMMUNOTHERAPY” (Ohio State Innovation Foundation, priority 2020, published 2023)
# Residues, ends and D or L forms follow the SMILES beside them. *: point of attachment. Cbz = O=C(OCc1ccccc1)*
# How the values were obtained:
# MP2 pODD flank tumors = test: in vivo bioluminescent imaging, heterotopic MP2 pODD flank tumors; set-up: species or system mouse
# Method: In vivo bioluminescent imaging. […] For heterotopic flank tumor experiments, 1×10^6 HeLa pODD or 5×10^6 MP2 cells were injected subcutaneously (s.c.) into the flanks of 6-wk-old female (HeLa pODD) or male (N1P2 pODD or MP2 CMV) immunocompromised athymic nu/nu mice. Replicate experiments with groups of 4-6 mice were used for statistical reproducibility. Caliper measurements of opposing diameters were used to calculate the tumor volumes using the modified ellipsoidal formula: tumor volume=(length×width^2)[23]. Upon reaching 100 mm^3, the animals were given 100 mg/kg D-luciferin intraperitoneally and bioluminescence images were captured using IVIS In Vivo Imaging System Lumina II (Perkin Elmer Inc). […] Bioluminescent data were analyzed using living Image software (Perkin Elmer Inc) and calculated as photon flux/sec. Obtained individual photon flux peak values were then normalized to baseline for each mouse and averaged per group. Gas inhalation experiments were performed by switching medical air and carbogen gas sources for the IVIS anesthesia vaporizer. Initial baselines were established in medical air under anesthesia, then the mice were subjected to 30 minutes of either medical air or carbogen rebreathing in an air-tight chamber while awake. After 30 minutes, photon flux was established in respective gas sources as a carrier for isoflurane anesthesia.
# [1] = system: pODD-Luc reporter in MP2 pODD cells; test: in vitro luciferase assay, MP2 pODD cells; type: cell-based, human; conditions: one hour of 10 μM
# Method: PCR-amplified cassette was then digested with Asci and Pmel restriction enzymes and ligated into pLenti-C-Myc-DDK-IRES-Puro. Correct orientation and sequence was confirmed by Sanger DNA sequencing. HeLa pODD and MIP2 pODD transfectants were selected with 2 μg/ml Puromycin for two weeks. Stable MP2 CMV Cells were generated by lentiviral transduction of MP2 cells with pLenti-CMV-Puro-Luc lentiviral vector (Addgene#17477) with 2 Puromycin selection for two weeks. Cells were grown in Dulbecco's Modified Eagle's Medium (DMEM) containing 25 mM D-glucose, 4 mM glutamine and 44 mM sodium bicarbonate in 5% CO2, if not stated otherwise. The cells were exposed to hypoxia (1% O2) in H35 Hypoxic Workstation (Hypoxygen) with 5% CO2 at 37° C. In some experiments, we used a hypoxia mimetic dimethyloxalyglycine (DMOG) as described. Cell counts and cellular proliferation were established using hemocytometer to determine the cell number and trypan blue exclusion assay to establish the fraction of viable/dead cells. All human cell lines have been authenticated using STR profiling within the past 3 years. All experiments were performed with mycoplasma-free cells.
# In vitro luciferase Assay. Proteins were extracted using Luciferase Assay Lysis Buffer (125 mM Tris-HCl, pH 7.5, 11.0 mM DTT, 10 mM EGTA, 50% Glycerol, 5% Triton X-100) and 200 μl/sample were transferred to 96-well plate and D-luciferin was added to the final concentration of 150 μg/ml immediately before the assay. Bioluminescence was measured on a Synergy H1 Hybrid Plate Reader (Biotek) after a 10-minute incubation period (10 slsample, Gain=150) in triplicates.
# PDE10A = molecular target: T1, PDE10A (Homo sapiens, UniProt Q9Y233); test: PDE10A purified enzyme activity assay (BPS Bioscience); type: biochemical; conditions: for PDE inhibition IC25: dose response analysis
# T1 construct: purchased BPS Bioscience
# T1 sequence (Q9Y233 whole entry): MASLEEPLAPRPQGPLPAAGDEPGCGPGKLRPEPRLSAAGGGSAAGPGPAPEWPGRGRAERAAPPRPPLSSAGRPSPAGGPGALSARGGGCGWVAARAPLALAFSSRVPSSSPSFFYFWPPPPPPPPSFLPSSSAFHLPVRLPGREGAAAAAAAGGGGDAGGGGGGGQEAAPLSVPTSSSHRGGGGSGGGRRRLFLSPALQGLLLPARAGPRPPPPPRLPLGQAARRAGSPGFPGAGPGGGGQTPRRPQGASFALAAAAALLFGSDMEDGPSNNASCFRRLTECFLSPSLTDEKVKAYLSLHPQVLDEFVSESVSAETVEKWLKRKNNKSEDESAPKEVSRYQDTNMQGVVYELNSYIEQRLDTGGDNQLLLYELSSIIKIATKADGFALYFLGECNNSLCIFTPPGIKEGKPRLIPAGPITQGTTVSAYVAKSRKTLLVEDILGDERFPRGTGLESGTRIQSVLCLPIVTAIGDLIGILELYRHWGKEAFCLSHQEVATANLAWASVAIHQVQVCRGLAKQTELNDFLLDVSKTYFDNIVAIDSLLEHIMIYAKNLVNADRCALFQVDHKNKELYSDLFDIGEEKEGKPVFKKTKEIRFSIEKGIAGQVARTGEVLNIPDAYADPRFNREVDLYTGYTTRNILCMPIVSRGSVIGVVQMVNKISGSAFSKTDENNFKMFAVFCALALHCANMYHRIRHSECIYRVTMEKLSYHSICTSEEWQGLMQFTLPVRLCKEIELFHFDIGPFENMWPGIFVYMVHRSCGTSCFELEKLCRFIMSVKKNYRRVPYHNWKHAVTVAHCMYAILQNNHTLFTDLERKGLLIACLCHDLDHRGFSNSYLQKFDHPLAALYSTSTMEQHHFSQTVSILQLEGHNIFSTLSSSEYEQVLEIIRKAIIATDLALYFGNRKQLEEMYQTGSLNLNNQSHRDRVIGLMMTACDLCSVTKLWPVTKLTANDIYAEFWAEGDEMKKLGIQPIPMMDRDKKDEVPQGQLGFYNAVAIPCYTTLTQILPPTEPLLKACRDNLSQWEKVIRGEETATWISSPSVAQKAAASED
# Text: We therefore defined the structure activity relationship (SAR) of PPV relative to two assays: inhibition of cellular OCR by Seahorse XE assay, and inhibition of PDE10A by purified enzyme activity (PDE10A activity assay, BPS Bioscience). […] Because the top portion of PPV was a planar structure like that of rotenone, we decided to focus our attention on the lower portion of the molecule.
# ETC complex 1 (C1) = ETC complex 1 (C1) (Homo sapiens, UniProt O75251+O75306+P03886); test: inhibition of cellular OCR by Seahorse XE assay; type: cell-based; conditions: for C1 inhibitor selectivity: vs PDE10A
# ETC complex 1 (C1), sequence (O75251 39-213): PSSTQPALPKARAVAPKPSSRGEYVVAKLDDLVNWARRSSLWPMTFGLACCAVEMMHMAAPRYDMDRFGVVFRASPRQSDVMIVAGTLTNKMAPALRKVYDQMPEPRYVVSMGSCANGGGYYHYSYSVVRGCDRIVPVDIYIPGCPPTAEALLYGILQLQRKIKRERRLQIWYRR
# ETC complex 1 (C1), sequence (O75306 34-463): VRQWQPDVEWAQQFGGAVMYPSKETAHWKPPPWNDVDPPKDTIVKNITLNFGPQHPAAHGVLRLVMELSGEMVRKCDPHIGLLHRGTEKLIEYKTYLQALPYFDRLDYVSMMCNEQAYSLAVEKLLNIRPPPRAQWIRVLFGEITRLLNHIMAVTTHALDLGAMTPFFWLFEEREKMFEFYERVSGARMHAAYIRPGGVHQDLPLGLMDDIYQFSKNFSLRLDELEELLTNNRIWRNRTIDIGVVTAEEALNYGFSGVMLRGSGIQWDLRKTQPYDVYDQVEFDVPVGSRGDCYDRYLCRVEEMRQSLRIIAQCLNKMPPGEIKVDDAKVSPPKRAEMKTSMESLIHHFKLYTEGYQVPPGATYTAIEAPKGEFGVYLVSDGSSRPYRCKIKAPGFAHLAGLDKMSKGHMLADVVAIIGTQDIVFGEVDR
# ETC complex 1 (C1), sequence (P03886 whole entry): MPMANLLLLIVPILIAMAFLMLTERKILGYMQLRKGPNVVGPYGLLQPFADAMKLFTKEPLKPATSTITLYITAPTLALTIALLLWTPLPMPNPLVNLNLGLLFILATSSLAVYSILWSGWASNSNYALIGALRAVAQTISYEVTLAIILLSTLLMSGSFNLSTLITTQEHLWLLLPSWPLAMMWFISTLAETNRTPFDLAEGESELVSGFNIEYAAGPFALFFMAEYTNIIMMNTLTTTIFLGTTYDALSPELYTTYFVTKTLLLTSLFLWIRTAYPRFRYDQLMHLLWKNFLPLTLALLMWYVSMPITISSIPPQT
# Text: PPVs PDE and mitochondrial activities are chemically separable. Papaverine has been traditionally thought to be effective as a vasodilator for the treatment of conditions including erectile dysfunction because it can inhibit PDE10A (like PDE 5 inhibitors sildenafil and tadalafil). However, PDE inhibition is not responsible for OCR effects in vitro, so we postulated that there are two activities in PPV, one inhibiting ETC complex 1 (C1) and one inhibiting PDE10A that may reside in different parts of the molecule. We therefore defined the structure activity relationship (SAR) of PPV relative to two assays: inhibition of cellular OCR by Seahorse XE assay, and inhibition of PDE10A by purified enzyme activity (PDE10A activity assay, BPS Bioscience). Because PPV can compete with rotenone at complex 1 (23), we reasoned that they may be binding the same site and therefore the structures would be similar relative to their target. Because the top portion of PPV was a planar structure like that of rotenone, we decided to focus our attention on the lower portion of the molecule.
# MC38 colorectal tumor = test: MC38 colorectal tumors in C57Bl6 mice, sensitization to anti PD-1; type: in vivo, mouse
# Method: MC38 tumors grown in C57B16 mice were treated as indicated with irrelevant antibody, anti PD-1, or anti PD-1 after PPV or SMV32 n=5-7, P=<0.05* for PPV and <0.01** for SMV32.
# Papaverine and SMV32 enhance PD-1 checkpoint blockade immunotherapy for cancer treatment. Because of the literature describing the immunomodulatory effects of hypoxia^(24-27), we hypothesized that reducing hypoxia may also enhance tumor lymphocyte infiltration and function and improve immune-mediated tumor cell killing. As those of skill in the art recognize, there is a large body of literature and research on increase the supply side of the hypoxia equation, but it has been heretofore an unexpected approach to decrease the tri demand side of the hypoxia equation. We tested tumors grown from the relatively immune-sensitive syngeneic MC38 colorectal tumor line in immuno-competent C5713116 mice. […] In a second cohort, we implanted 1×10^6 cells/mouse and after 5 days, when tumors were 50-100 mm^3, they were randomized into four groups. Therapy was started with either control rat IgG antibody, or a suboptimal dose of anti PD-1(CD279) blocking monoclonal antibody (BioXCell, clone 29F.1A12, 100 μg ip every 3 days).
# CMT167 flank lung tumors = CMT167 flank lung tumors in C57Bl6 mice, sensitization to anti PD-1; type: in vivo, mouse
# Method: C57B16 mice bearing CMT167 flank lung tumors were treated as indicated on days 10 and 13 and relative volume followed.
# There are reports in the literature indicating ways that hypoxia affects immune functions of lymphocytes, MDSCs and T regulatory cells infiltrating in the tumor.
# LLC tumor = test: Lewis Lung Carcinoma (LLC) PD-1 blockade resistant tumor model; type: in vivo, mouse
# Method: LLC tumor bearing mice were treated as indicated on days 5, 8 and relative growth followed. P=NS for PD-1 vs PPV->PD1, 0.04 for PD-i vs SMV32->PD-1.
# Finally, as a rigorous test of anti-hypoxia agents as immuno-sensitizers of model tumors grown in mice, we next tested the PD-1 blockade resistant tumor model Lewis Lung Carcinoma (LLC). These tumors have been reported to be refractory to even full dose (200 ug/mouse) PD-1 blocking antibody.
# [2] = system: CD8 T cells in MC38 tumors; test: multispectral immunophenotyping of tumor infiltrating lymphocytes in MC38 tumors; type: in vivo, mouse; conditions: 2 mg/kg IV days 8, 10, 13; tumors harvested day 15
# Method: Panel A Tumor infiltrating immune cells isolated from Day 15 MC38 tumors (n=4/g) were stained for lineage (CD45, CD3, CD8, […], and CD11b) and T cell exhaustion (PD1, Tim3, Slamf6, TOX, Tcf1, CD44, CD62L, CTLA4, Lag-3, Klrg1, T-bet, and Ki-67) (93-96). Cells were analyzed by Cytek Aurora multi-spectral FACS, and Umap generated based on concatenated file from each 4 FSC files without variation in cell number. Limp figure was generated by OMIQ with CD8 T cells (CD45+, CD3+, CD8+, CD11b−, CD4−). CD8 population was divided into 15 clusters based on T cell markers. Expression signatures marked (ovals) show progenitor exhausted T cells and terminally exhausted T cells. Panel B Statistical significance of clusters between control and SMV32 treated group were assessed by edgeR and SAM (n=4 mice per group).
# In order to determine a mechanism by which reduction in hypoxia enhances immune function in the solid tumor, we undertook an investigation with multi spectral immunophenotyping. This technology uses 36 different markers simultaneously to characterize immune cell infiltrate in tumors. We performed this analysis on heterotopic NIC38 murine colorectal carcinoma tumors grown in immune-competent C57BI6 mouse strain. A cohort of tumor bearing mice were randomized to be treated with either IV delivery of vehicle control, or either PPV or SMV32. […]
# cells = test: in vitro washout experiments; type: cell-based; conditions: initial studies
# murine tumors = test: murine tumor hypoxia and radiation response; conditions: mouse, in vivo
# [3] = system: orthotopic MP2 pODD tumors; test: in vivo bioluminescent imaging, orthotopic MP2 pODD tumors; set-up: species or system mouse; conditions: 2 mg/kg, tail vein
# Method: Orthotopic Panreatic Xenografts. MP2 PD AC cells (1×10^6) or the indicated derivates were implanted in immune-deficient athymic nu/nu mice following fACLIC approved protocols. Briefly, an incision was placed in the right flank of anesthetized animals the spleen and pancreas liberated. Cells were mixed 1:1 with Matfigel and implanted in the tail of the pancreas in 10 μl. Incision was sutured in 2 layers, animals given long lasting analgesics, and allowed to recover from anesthesia. Mice were returned to housing for post-op care and monitored daily for 4 days. Animals were checked weekly after that by palpation to determine tumor growth.
# In vivo bioluminescent imaging. All animal experiments were performed according to protocols approved by the OSU institutional IAGLIC review (protocol #201200000124-R2), with daily veterinarian observation. For heterotopic flank tumor experiments, 1×10^6 HeLa pODD or 5×10^6 MP2 cells were injected subcutaneously (s.c.) into the flanks of 6-wk-old female (HeLa pODD) or male (N1P2 pODD or MP2 CMV) immunocompromised athymic nu/nu mice. […] Mice were anesthetized with 1.5% isoflurane and bioluminescence was measured every two minutes for the period of 25 minutes to identify peak response of each mouse to D-luciferin. Bioluminescent data were analyzed using living Image software (Perkin Elmer Inc) and calculated as photon flux/sec. […]
smiles,measurement,setting,value
"O=[N+]([O-])c1ccc(O)c([N+](=O)[O-])c1 [2,4-DNP, 2,4-dinitrophenol]",increase of photon flux compared to baseline,MP2 pODD flank tumors; single intraperitoneal dose of 20 mg/kg,1.6 ×
"O=C(O)C(Cl)Cl [DCA, Dichloroacetate]",increase of photon flux,MP2 pODD flank tumors; intraperitoneal 75 mg/kg,1.8 ×
CC(C)C[C@@H](C=O)NC(=O)[C@H](CC(C)C)NC(=O)[C@H](CC(C)C)NC(=O)OCc1ccccc1 [MG132] (Cbz-Leu-Leu-Leu-aldehyde),increase in pODD-Luc activity compared to 24 h hypoxia,[1],70 fold
same,induction of pODD-Luc activity compared to normoxia,[1],377 fold
COc1cc2ccnc(Cc3cc(C)cc(C)c3)c2cc1OC [SMV23],PDE inhibition IC25,PDE10A,0.5 µM
same,PDE10A inhibitor selectivity,PDE10A; vs C1,relatively pure
COc1cc2ccnc(Cc3cccc4ccccc34)c2cc1OC [SMV32],mitochondrial activity,ETC complex 1 (C1),retain mitochondrial activity
same,C1 inhibitor selectivity,ETC complex 1 (C1),relatively pure
same,PDE inhibition IC25,PDE10A,13.4 µM
same,effect on PD-1 blockade,MC38 colorectal tumor; 2 mg/kg iv 16 hours prior to suboptimal anti PD-1 (100 μg ip every 3 days),enhance the effectiveness of suboptimal PD-1 blockade
same,"tumor growth, compound alone","MC38 colorectal tumor; repeated dosing, no antibody",no effect on tumor growth
same,tumor growth delay,"CMT167 flank lung tumors; given 16 hours prior to sub-optimal anti-PD-1, days 10 and 13",significant tumor growth delay
same,comparison with PPV for sensitizing tumors to PD-1 blockade,CMT167 flank lung tumors; same dose as PPV,superior to PPV
same,comparison with PPV for sensitizing tumors to PD-1 blockade,LLC tumor; resistant LLC tumors,superior to PPV
same,"therapeutic effect, compound first and PD-1 antibody second","LLC tumor; treated on days 5, 8",significant growth inhibition
same,exhausted CD8 T cell populations,[2],shift from terminal (known to be non-functional) to progenitor cells
same,washout from cells,cells,does not wash out of cells
same,radiation response,murine tumors,increase radiation response of murine tumors
same,tumor hypoxia,murine tumors,reduce tumor hypoxia
same,photon flux compared to PPV treated mice,[3],trended to longer duration of action and lower luciferase activity at 6 hours
COc1ccc(OCc2nccc3cc(OC)c(OC)cc23)cc1OC [SMV37],mitochondrial activity,ETC complex 1 (C1),retain mitochondrial activity
same,C1 inhibitor selectivity,ETC complex 1 (C1),relatively pure
same,radiation response,murine tumors,increase radiation response of murine tumors
same,tumor hypoxia,murine tumors,reduce tumor hypoxia
CC(C)C[C@H](NC(=O)[C@H](Cc1ccccc1)NC(=O)c1cnccn1)B(O)O [bortezomib],photon flux,"MP2 pODD flank tumors; 1 mg/kg intraperitoneally, 2 hours post injection",significant increase of photon flux
